Assay results published in patent US4737517A, “Coumarin derivatives, pharmaceutical compositions containing the same, and the use thereof in the treatment of cancer” (FIDIA, S.p.A., priority 1983, dated 1988).
Like-named read-outs stand apart in the source and are kept apart here.

Assays:
coagulation = test: Thrombotest on capillary blood (anticoagulating effect); type: in vivo, mice (C57B1/6J); conditions: oral, controls 31.4 ± 1.7
Description: In a separate experiment, the anticoagulating activity of the compounds is verified on the same strain of mice at the same doses used for antimetastatic activity evaluation.
The effect on coagulation is measured by a thrombotest on capillary blood taken from the retroorbital cavity (Owren, P. A. et al. Lancet ii, 754-758, 1959).
(§1) The anticoagulating effect measured by the "thrombotest", the antitumor effect measured by the decrease in weight of the primary tumor and the antimetastatic effect shown as the number of metasteses present in the lungs, are reported in Table 2. While the antitumor and antimetastatic effects of Warfarin and the two new products according to the present invention are roughly equal, the strong anticoagulating effect is absent in the two new products of the invention. This is a completely unexpected result.

[1] = system: 3 LL carcinoma cells (Lewis lung carcinoma); test: Antitumor and antimetastatic activity in mice implanted with 3 LL Lewis lung carcinoma; type: in vivo, male mice of the C57B1/6J strain; conditions: oral; for No. of metastases: lungs, controls 21.8 ± 4.9; for No. of metastases / Primary Tumor Weight: 25th day after transplant; for Primary Tumor Weight: controls 9087 ± 386; for antitumoral and antimetastatic activity (in words): in vivo on mice
Description: This activity is to be seen for instance after administration of doses of between 0.2 mg/kg and 10 mg/kg by the oral route, as illustrated by the following experiments.
1×10^5 3 LL carcinoma cells (Lewis lung carcinoma) are implanted by intramuscular injection in the paws of male mice of the C57B1/6J strain, weighing about 20-22 g. This operation is effected as described in the literature (Poggi A. et al. Cancer Res. 37, 272-277, 1977). The growth of the tumor is observed until the 25th day after transplant. On this day the animals are sacrificed and the primary tumor and lungs are removed in order to evaluate the growth of the primary tumor and the number of metastases. Pharmacological treatment by the oral route begins 2 days before transplant of the tumor and continues until sacrifice. The substances are dissolved in tap water and are changed every 24 hours.
Table 2 reports the results obtained with the two coumarin derivatives 19 and 26, previously mentioned in comparison to Warfarin, the well-known […] and antimetastatic compound, which is also a coumarin derivative. Warfarin's antimetastatic activity is widely documented both experimentally (Zacharski, L. R. et al. Cancer 44, 732-741, 1979 and Poggi, A. et al. Lancet i 163-164, 1978) and clinically (Zacharski, L. R. et al. J. Am. Med. Assoc. 245, 831-835, 1981). […] This effect is measured by the number of metastases (Zacharski, L. R. et al. Cancer 44, 732-741, 1979 and Poggi, A. et al. Lancet i 163-164, 1978).
as §1

[2] = system: 3 LL carcinoma cells (Lewis lung carcinoma); conditions: number of metastases; mice of the C57B1/6J strain; cited from earlier work
lung carcinoma = conditions: cited from earlier work
[3] = system: platelet hyper-aggregation induced by ADP; test: Inhibition of ADP-induced platelet hyperaggregation in vitro (Born's method, aggregometer ELVI 840); type: cell-based, New Zealand rabbits; conditions: Oryctolagus cuniculus, 0.5 h, read-out: Inhibition of platelet hyper-aggregation induced by ADP
Description: Two separate centrifugations are effected (at 1000 rpm and at 6000 rpm), thus obtaining PRP ([…]) and PPP ([…]); the first is diluted with the second in order to obtain a platelet concentration of 300,000 per mm^3 (the count is effected in a Buerker apparatus). The compounds with a platelet antiaggregating activity of the present invention are added at the desired concentrations and incubated for 30 minutes at 37° C. with the aggregating agents. […] The various compounds represented by the numbers in the first column are identifiable by the numbers in the second column which refer to the examples described below in this specification.

[4] = Acute toxicity in the rat, oral; parameters: species or system rat (Sprague Dawley); conditions: in vivo, aqueous solution, up to 14 days, Litchfield and Wilcoxon
Description: Acute toxicity in the rat: groups of Sprague Dawley rats (male+female) are treated with graduated doses ranging from 0.125 g/kg of body weight to 10 g/kg of body weight of the above mentioned compounds in aqueous solution. The compounds are administered orally by intubation. Subsequent death may be immediate or may occur at any time up to 14 days after treatment.
The lethal dose 50 (LD50), that is, the dose which causes the death of 50% of the animals, is evaluated by the method of Litchfield and Wilcoxon (J. Pharmacol. Ex. Ther. 96, 99-113, 1949).

[5] = Acute toxicity in the mouse, oral; parameters: species or system mouse (Swiss); conditions: in vivo, aqueous solution, up to 14 days, Litchfield and Wilcoxon
Description: Acute toxicity in the mouse: groups of Swiss mice (male+female) are treated with graduated doses ranging from 0.125 g/kg to 5 g/kg of body weight with compounds 19 to 26. The compounds are administered orally by intubation and dissolved in water.
Subsequent death may be immediate or may occur at any time up to 14 days after treatment. The lethal dose 50 (LD50), that is, the dose which causes the death of 50% of the animals, is evaluated by the method of Litchfield and Wilcoxon (J. Pharmacol. Exp. Ther. 96, 99-113, 1949).

[6] = 1st adminis. 2.1 mg/kg, 2nd adminis. 0.5 mg/kg
[7] = 1st adminis. 1.5 mg/kg, 2nd adminis. 0.3 mg/kg

CC(=O)CC(c1ccccc1)c1c(O)c2ccccc2oc1=O (centres unmarked) [Warfarin, reference compound]
Thrombotest (coagulation; doses not given): 180
No. of metastases ([1]; doses not given): 12.4 ± 0.9
Primary Tumor Weight ([1]; doses not given): 6274 ± 690 mg
antimetastatic effect on Lewis lung carcinoma (in words) [2]: has an antimetastatic effect
anticoagulating activity in antitumor therapy (in words) (lung carcinoma; human, in vivo): strong anticoagulating activity
survival time in patients with lung carcinoma (in words) (lung carcinoma; in association with chemotherapy and radiation): prolongs survival time

C=CCc1c(O)c(CN2CCN(CCO)CC2)cc2c(C)cc(=O)oc12.ClOCl [Compound 26, 4-methyl-6-[[4-(2-hydroxyethyl)-1-piperazinyl]methyl]-7-hydroxy-8-allylcumarin dichlorohydrate]
inhibition at 100 µg/mL [3]: 23%
Thrombotest (coagulation; [6]): 33.4 ± 1.2
antitumoral and antimetastatic activity (in words) [1]: antitumoral and antimetastatic activity
No. of metastases [1, 6]: 9.8 ± 2.8
Primary Tumor Weight [1, 6]: 6789 ± 349 mg
LD50 at 336 h [4]: 3160 mg/kg
LD50 at 336 h [5]: 1950 mg/kg

C=CCc1c(O)c(CN(C)C)cc2c(C)cc(=O)oc12.Cl [Compound 19, 4-methyl-6-dimethylaminomethyl-7-hydroxy-8-allylcumarin hydrochloride]
inhibition at 100 µg/mL ([3]; ADP 20 μg/ml, 100 γ/ml of active compound, rabbit PRP, incubated 30 minutes at 37° C): 40%
Thrombotest (coagulation; [7]): 29.3 ± 1.7
antitumoral and antimetastatic activity (in words) [1]: antitumoral and antimetastatic activity
No. of metastases [1, 7]: 11.4 ± 3.3
Primary Tumor Weight [1, 7]: 6731 ± 533 mg
LD50 at 336 h [4]: 2000 mg/kg
LD50 at 336 h [5]: 1210 mg/kg
